From patent publication US20260000676A1, “CHROMAN DERIVATIVES AS ESTROGEN RECEPTOR DEGRADERS” (THE REGENTS OF THE UNIVERSITY OF MICHIGAN, priority 2022, published 2026)
pIC50: −log10 of the molar value. Where two headings read alike, the source gives them in different places.

Key:
CRBN/DDB1 = CRBN/DDB1 (Homo sapiens (Human), UniProt Q96SW2); experiment: HTRF binding assay to CRBN/DDB1; settings: for pIC50: read-out: CRBN HTRF IC50
Description: The binding potency was determined using HTRF assay technology (Perkin Elmer). Compounds were serially diluted in DMSO and 0.2 μL volume was transferred to white 384-well plate.

ERα_LBD(GST) = ERα_LBD(GST) (Homo sapiens (Human), UniProt P03372); experiment: LanthaScreen TR-FRET ERα competitive binding assay; settings: read-out: ERα HTRF IC50
Procedure, shortened: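 GST-tagged ERα LBD (4 nM) with Tb anti-GST (2 nM) and Fluormone ES2 Green tracer (3 nM) in nuclear receptor buffer K plus 5 mM DTT, 1% DMSO; 3-fold compound dilutions, 60 min at room temperature in the dark. TR-FRET 520/495 nm ratio vs log[ligand], sigmoidal fit for IC50; 1 μM ARV_471 as full-inhibition control.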

ER [1] = molecular target: T1, ER (Homo sapiens (Human), UniProt P03372); experiment: In-cell western (ICW) ER degradation assay in MCF-7 cells; format: cell-based; settings: MCF7, 16 hrs; for DC50: ER degradation; for MCF7 Dmax %: maximal ER degradation
ER [2] = molecular target: T1, ER; experiment: In-cell western (ICW) ER degradation assay in T47D cells; format: cell-based; settings: 16 hrs; for DC50: ER degradation
MCF-7 cells = settings: read-out: MCF7 Proliferation IC50; CellTiter-Glo, day 6
Description: (§1) In vitro assay can be accomplished by MCF-7 and T47D Cell Titer Glo (CTG) assay. MCF-7 and T47D cell (From HDB) are cultured in multi-well white plate with phenol red-free RPMI1640+10% CS-FBS+1% P/S medium (e.g., at 1,000 cells/well). On day 0: Cells are treated with compound at certain concentrations (e.g., 0.5 to 10000 nM) (DMSO and Staurosporine as control). On day 0 and day 6: add Cell Titer Glo reagent and read on EnVision after 30 min incubation for data generation.
(§2) • 1) Cell culture medium: phenol red-free RPMI1640+10% CS-FBS, 1% P/S
(§3) Day-1: MCF-7 and T47D cell (From HDB) were cultured in 384-well white plate with phenol red-free RPMI1640+10% CS-FBS+1% P/S medium (1,000 cells/well) for overnight at 37° C., 5% CO2 incubator.
(§4) Day 0: Cells were treated at desired compound concentrations (0.5 to 10000 nM) (DMSO and Staurosporine as control) for Day 6 at 37° C., 5% CO2 incubator.
(§5) Day 0 and Day 6: add Cell TiterGlo reagent and read on EnVision after 30 min incubation for data generation.

T47D cells = settings: read-out: T47D Proliferation IC50; CellTiter-Glo, day 6
Description: as §1, §2, §3, §4, §5

ER [3] = molecular target: T1, ER; experiment: In-cell western blot analysis (Compounds B1 to B5); format: cell-based; settings: 16 hours; read-out: ICW DC50
Description: In-cell western blot analysis. Cells are seeded in multi-well plates (e.g., at 40,000 or 10,000 cells/well). Diluted compounds at certain concentration are added (final 0.5% DMSO) and cells are incubated for a certain period of time (e.g., 16 hours). Formaldehyde (e.g., PBS:FA=9:1) is added and followed by washing with PBS. The cells are blocked with Licor blocking buffer (Li-Cor). The relative ER percentage in treated cells were obtained by comparing the values of treated wells to those in untreated and DMSO-treated wells as 100%.
In-cell western blot analysis, a. seed cells in black-sided/clear bottom 96- or 384-well plates at 40,000 or 10,000 cells/well, overnight; b, add diluted compounds (final 0.5% DMSO), 16 hours. 16 h later, remove medium, add 100 μL or 25 µL of 3.7-4.0% formaldehyde (PBS: FA=9:1), RT 20 min, no shaking; c. wash with PBS, and permeabilized with 100 μL or 25 μL/well of 1×PBS+0.1% Triton X-100 10 minutes; d. block with 100 μL or 25 L Licor blocking buffer (Li-Cor), RT 1 h, moderate shaking; d. Add 100 μL or 25 μL of anti-ER (cs-8644, 1:500-1,000)+GAPDH (Millipore MAB374, 1:1000) in Block+0.05% Tween 20. RT 2 h, gentle shaking. Negative control: cells plus secondary antibodies (no primary antibodies); e. wash×4 with PBS+0.05-0.1% Tween 20, gentel shaking; f, anti-rabbit-680 and anti-mouse-800 (both 1:1000 in LiCor block+0.05% Tween20, RT 1 h, gentle shaking, no light. LI-COR: 0.2% to reduce background; g. wash×4 with PBS+0.05% Tween 20, gental shaking; h, add 100 μL or 25 μL of PBS to each well and read on CLX plate reader. The relative ER percentage in treated cells were obtained by comparing the values of treated wells to those in untreated and DMSO-treated wells as 100%.

T47D cell line = experiment: Cell growth assay (WST-8) in T47D cell line; format: cell-based; settings: Homo sapiens, 96 h, WST-8, 4 days, read-out: Cell Growth Inhibition in T47D cell line IC50
Description: Cell Growth Assay. The cells are seeded at certain concentration (e.g., at 1500/well) in multi-well plates overnight. Cells are subsequently treated with the compounds. A certain period of time (e.g., 4 days) after the compound treatment, 10% WST-8 reagent is added to the culture medium and incubate under certain conduction (e.g., in a CO2 incubator at 37° C. for 2.5 hours). The absorbance is measured on each sample using a microplate reader at certain wavelength (e.g., 450 nm). The relative absorbance is calculated against the vehicle control from three individually repeats.
Cell Growth Assay. The cells were seeded at 1500/well in 96 well plates overnight. One day after the seeding, they were treated with indicated doses of compounds respectively. 4 days after the compound treatment, 10% WST-8 reagent was added to the culture medium and incubate in a CO2 incubator at 37° C. for 2.5 hours. Before reading, the plate was mixed gently on an orbital shaker for one minute to ensure homogeneous distribution of color. The absorbance was measured of each sample using a microplate reader at a wavelength of 450 nm. The relative absorbance was calculated against the vehicle control from three individually repeats.

T1 sequence (P03372 whole entry): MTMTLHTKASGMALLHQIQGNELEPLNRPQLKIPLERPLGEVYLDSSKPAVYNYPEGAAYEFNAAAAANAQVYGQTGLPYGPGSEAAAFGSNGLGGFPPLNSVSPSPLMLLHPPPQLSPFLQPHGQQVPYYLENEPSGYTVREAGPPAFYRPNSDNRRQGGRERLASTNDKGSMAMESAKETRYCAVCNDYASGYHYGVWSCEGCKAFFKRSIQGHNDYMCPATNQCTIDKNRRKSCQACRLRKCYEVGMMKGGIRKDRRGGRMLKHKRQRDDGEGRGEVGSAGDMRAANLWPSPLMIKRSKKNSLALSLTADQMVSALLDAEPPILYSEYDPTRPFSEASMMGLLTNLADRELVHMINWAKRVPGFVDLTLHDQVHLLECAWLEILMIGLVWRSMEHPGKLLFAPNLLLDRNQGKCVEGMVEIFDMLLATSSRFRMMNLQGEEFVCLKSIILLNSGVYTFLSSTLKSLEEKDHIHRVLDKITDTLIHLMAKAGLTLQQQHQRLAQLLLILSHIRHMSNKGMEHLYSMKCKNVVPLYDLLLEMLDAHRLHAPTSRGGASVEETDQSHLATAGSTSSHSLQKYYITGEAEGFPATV
Chain of CRBN/DDB1 (Q96SW2 whole entry): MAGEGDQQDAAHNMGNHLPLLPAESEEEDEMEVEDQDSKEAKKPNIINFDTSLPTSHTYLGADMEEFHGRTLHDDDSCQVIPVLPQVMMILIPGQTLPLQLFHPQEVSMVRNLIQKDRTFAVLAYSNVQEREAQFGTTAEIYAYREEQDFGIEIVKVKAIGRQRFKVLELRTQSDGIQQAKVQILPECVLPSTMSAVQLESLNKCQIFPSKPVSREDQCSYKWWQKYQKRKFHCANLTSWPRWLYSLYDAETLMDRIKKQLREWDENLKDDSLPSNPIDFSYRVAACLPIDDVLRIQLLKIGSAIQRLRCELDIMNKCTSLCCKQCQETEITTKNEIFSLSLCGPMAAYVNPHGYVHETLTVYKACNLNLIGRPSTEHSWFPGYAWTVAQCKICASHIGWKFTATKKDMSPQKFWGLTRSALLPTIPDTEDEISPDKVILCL
Chain of CRBN/DDB1 (Q16531 whole entry partner): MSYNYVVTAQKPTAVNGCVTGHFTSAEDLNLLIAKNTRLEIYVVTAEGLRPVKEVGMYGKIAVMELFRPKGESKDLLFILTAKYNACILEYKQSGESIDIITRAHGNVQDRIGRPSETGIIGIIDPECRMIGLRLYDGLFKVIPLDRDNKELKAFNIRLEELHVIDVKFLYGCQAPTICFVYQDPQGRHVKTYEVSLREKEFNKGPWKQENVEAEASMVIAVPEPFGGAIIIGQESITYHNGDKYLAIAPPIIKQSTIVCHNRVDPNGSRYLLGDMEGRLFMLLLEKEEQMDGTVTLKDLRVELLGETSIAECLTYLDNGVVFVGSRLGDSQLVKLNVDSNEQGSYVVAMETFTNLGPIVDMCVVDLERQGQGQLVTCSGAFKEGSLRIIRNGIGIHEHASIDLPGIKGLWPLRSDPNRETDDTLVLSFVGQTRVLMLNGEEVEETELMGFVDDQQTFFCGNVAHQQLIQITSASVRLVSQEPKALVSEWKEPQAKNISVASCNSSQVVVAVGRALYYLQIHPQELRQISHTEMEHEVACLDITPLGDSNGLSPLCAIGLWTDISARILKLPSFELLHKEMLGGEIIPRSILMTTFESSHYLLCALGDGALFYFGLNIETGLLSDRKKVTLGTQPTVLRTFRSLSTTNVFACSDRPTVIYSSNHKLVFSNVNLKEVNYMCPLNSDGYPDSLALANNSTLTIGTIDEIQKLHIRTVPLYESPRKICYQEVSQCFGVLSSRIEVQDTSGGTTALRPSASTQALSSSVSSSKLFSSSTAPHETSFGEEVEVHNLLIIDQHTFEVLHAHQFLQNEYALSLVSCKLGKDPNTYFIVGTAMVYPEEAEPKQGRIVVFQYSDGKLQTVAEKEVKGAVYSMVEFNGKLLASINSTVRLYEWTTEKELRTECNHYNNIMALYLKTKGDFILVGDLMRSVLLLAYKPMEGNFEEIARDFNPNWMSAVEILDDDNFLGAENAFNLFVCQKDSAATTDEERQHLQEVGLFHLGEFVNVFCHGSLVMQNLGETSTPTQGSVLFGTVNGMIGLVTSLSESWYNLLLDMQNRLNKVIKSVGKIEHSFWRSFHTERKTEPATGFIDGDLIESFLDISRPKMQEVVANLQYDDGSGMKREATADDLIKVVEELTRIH
Chain of ERα_LBD(GST) (P03372 311-547): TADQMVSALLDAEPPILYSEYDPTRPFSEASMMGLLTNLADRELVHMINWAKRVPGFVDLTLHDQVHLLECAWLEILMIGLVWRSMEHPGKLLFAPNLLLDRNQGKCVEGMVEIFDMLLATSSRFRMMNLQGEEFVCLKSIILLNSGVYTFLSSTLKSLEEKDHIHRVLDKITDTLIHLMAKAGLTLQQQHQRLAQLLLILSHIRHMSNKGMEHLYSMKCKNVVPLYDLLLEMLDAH

Structure (SMILES)	DC50 (ER [1])	DC50 (ER [2])	pIC50 (MCF-7 cells)	pIC50 (T47D cells)	DC50 (ER [3])	pIC50 (T47D cell line)	other results
O=C1CCC(N2Cc3cc4c(cc3C2=O)OC[C@@H]2CN(CC3CCC5(CC3)CN(c3ccc([C@@H]6c7ccc(O)cc7OC[C@@H]6c6ccccc6)cc3)C5)CCN42)C(=O)N1 (stereo partly drawn) [Compound A53, 3-((S)-3-((2-(4-((3S,4R)-7-hydroxy-3-phenylchroman-4-yl)phenyl)-2-azaspiro[3.5]nonan-7-yl)methyl)-8-oxo-1,2,3,4,4a,5,8,10-octahydro-9H-pyrazino[1′,2′:4,5][1,4]oxazino[2,3-f]isoindol-9-yl)piperidine-2,6-dione]	1 to 10 nM	1 to 10 nM	6.30 to 7.30	6.30 to 7.30			pIC50 (CRBN/DDB1): 5.30 to 6.30; pIC50 (ERα_LBD(GST)): > 8.30; MCF7 Dmax % (ER [1]): B (“B”: >50% and <75%); T47D Dmax % (ER [2]; maximal ER degradation): A (“A”; >=75%)
O=C1CCC(N2Cc3cc(N4CCN(CC5CC6(CCN(c7ccc([C@@H]8c9ccc(O)cc9OC[C@@H]8c8ccccc8)cn7)CC6)C5)CC4)ccc3C2=O)C(=O)N1 (single isomer, unassigned) [Compound A92]	< 1 nM	< 1 nM	> 7.30	> 7.30			IC50 (CRBN/DDB1; CRBN HTRF IC50 (nM)): > 5000 nM; MCF7 Dmax % (ER [1]): B (“B”: >50% and <75%); T47D Dmax % (ER [2]; maximal ER degradation): B (“B”: >50% and <75%)
O=C1CCC(N2Cc3c(ccc4c3OC[C@H]3CN(CC5CC6(CCN(c7ccc(C8c9ccc(O)cc9OCC8c8ccccc8)cc7)CC6)C5)CCN43)C2=O)C(=O)N1 (some centres unmarked) [Compound B2]					> 100 nM	< 8.00	
O=C1CCC(N2Cc3c(ccc4c3OCC43CCN(CC4CC5(CCN(c6ccc(C7c8ccc(O)cc8OCC7c7ccccc7)cc6)CC5)C4)CC3)C2=O)C(=O)N1 (centres unmarked) [Compound B4, 3-(1′-((7-(4-(7-hydroxy-3-phenylchroman-4-yl)phenyl)-7-azaspiro[3.5]nonan-2-yl)methyl)-6-oxo-6,8-dihydro-2H,7H-spiro[furo [2,3-e]isoindole-3,4′-piperidin]-7-yl)piperidine-2,6-dione]					> 100 nM	< 8.00	
O=C1CCC(N2Cc3cc(N4CCN(CC5CC6(CCN(c7ccc([C@H]8c9ccc(O)cc9OC[C@H]8c8ccccc8)cn7)CC6)C5)CC4)ccc3C2=O)C(=O)N1 (stereo partly drawn) [Compound A98, (R)-3-(5-(4-((7-(5-((3R,4S)-7-hydroxy-3-3-phenylchroman-4-yl)pyridin-2-yl)-7-azaspiro[3.5]nonan-2-yl)methyl)piperazin-1-yl)-1-oxoisoindolin-2-yl)piperidine-2,6-dione]	< 1 nM	< 1 nM	> 7.30	> 7.30			pIC50 (CRBN/DDB1): 6.30 to 7.30; Dmax (ER [1]; MCF7, maximal ER degradation): ≥ 75%; Dmax (ER [2]; maximal ER degradation): ≥ 75%
O=C1CCC(N2Cc3c(ccc4c3OC[C@H]3CN(CC5CCN(c6ccc(C7c8ccc(O)cc8OCC7c7ccccc7)cc6)CC5)CCN43)C2=O)C(=O)N1 (stereo partly drawn) [Compound B1, 3-((5aR)-7-((1-(4-(7-hydroxy-3-phenylchroman-4-yl)phenyl)piperidin-4-yl)methyl)-1-oxo-1,3,5,5a,6,7,8,9-octahydro-2H-pyrazino[1′,2′:4,5][1,4]oxazino[2,3-e]isoindol-2-yl) piperidine-2,6-dione]					> 100 nM	< 8.00	
O=C1CCC(N2C(=O)c3cc4c(cc3C2=O)CN(CC(=O)N2CCC3(CC2)CCN(c2ccc(C5c6ccc(O)cc6OCC5c5ccccc5)cc2)CC3)C4)C(=O)N1 (centres unmarked) [Compound B5, 2-(2,6-dioxopiperidin-3-yl)-6-(2-(9-(4-(7-hydroxy-3-phenylchroman-4-yl)phenyl)-3,9-diazaspiro[5.5]undecan-3-yl)-2-oxoethyl)-6,7-dihydropyrrolo[3,4-f]isoindole-1,3(2H,5H)-dione]					> 100 nM	< 8.00	
O=C1CCC(N2Cc3cc4c(cc3C2=O)OC[C@@H]2CN(CC3CC5(CCN(c6ccc(C7c8ccc(O)cc8OCC7c7ccccc7)cc6)CC5)C3)CCN42)C(=O)N1 (stereo partly drawn) [Compound B3, 3-((4aS)-3-((7-(4-(7-hydroxy-3-phenylchroman-4-yl)phenyl)-7-azaspiro[3.5]nonan-2-yl)methyl)-8-oxo-1,2,3,4,4a,5,8,10-octahydro-9H-pyrazino[1′,2′:4,5] [1,4]oxazino[2,3-f]isoindol-9-yl) piperidine-2,6-dione]					> 100 nM	< 8.00	
